Laboratory results taken from patent US20260256934A1, “ANTIBODY-DRUG CONJUGATE INCLUDING MUTANT Fc REGION” (DAIICHI SANKYO COMPANY, LIMITED, priority 2022, published 2026).

Legend:
[1] = biological target: T1, human wild-type (Hu-WT) STING C-terminal binding domain protein (Homo sapiens, UniProt Q86WV6, H232R); assay: Thermal shift assay with recombinant STING C-terminal binding domain protein (Hu-WT); settings: test compound 0.5 mM; Tm minus Tm of well without compound
T1 construct: made in house; host or cells: E. coli Rosetta 2 (DE3), co-expressed with BirA
T1 sequence (Q86WV6 with tags, fused parts or gaps H232R): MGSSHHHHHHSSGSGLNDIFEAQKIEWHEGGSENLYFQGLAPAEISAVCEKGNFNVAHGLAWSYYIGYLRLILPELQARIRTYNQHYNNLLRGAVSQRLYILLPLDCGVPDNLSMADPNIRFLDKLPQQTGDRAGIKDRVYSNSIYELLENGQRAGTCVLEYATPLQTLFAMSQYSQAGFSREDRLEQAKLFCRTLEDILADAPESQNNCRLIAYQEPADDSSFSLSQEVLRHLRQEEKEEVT
Procedure: (§1) Each expression strain was added to TB broth containing 100 μg/mL ampicillin, 50 μg/mL streptomycin, and 30 μg/mL kanamycin, and cultured at 37° C. Expression was then induced with 100 µM IPTG, and the cells were further cultured at 16° C.
(§2) The culture broth was centrifuged, and the obtained bacteria were frozen and thawed. The proteins were extracted by sonication, and the supernatant was collected by centrifugation. The resulting supernatant was purified through a HisTrap FF column (GE Healthcare) using an AKTAexpress chromatography system (GE Healthcare, IL, US), made to pass through a Superdex200 16/60 column (GE Healthcare), and eluted.
(§3) The binding of a compound to each STING C-terminal binding domain protein was determined by a thermal shift assay, which uses the increase in the thermal denaturation temperature of the protein as an indicator.
(§4) Specifically, each test compound (final concentration 0.5 mM), SYPRO Orange (final concentration: 20×concentration), and the STING protein were mixed in a 384-well real-time PCR plate using a plate shaker. […] Tm (the midpoint of the unfolding transition) (° C.) was determined as the temperature at which the rate of increase in fluorescence intensity reached its maximum value. The shift of Tm by the test compound was calculated as ΔTm (° C.) by subtracting, from the Tm value of each compound, the Tm value of the well without the compound.

[2] = biological target: T2, mouse wild type (Ms-WT) STING C-terminal binding domain protein (Mus musculus, UniProt Q3TBT3); assay: Thermal shift assay with recombinant STING C-terminal binding domain protein (Ms-WT); settings: test compound 0.5 mM; Tm minus Tm of well without compound
T2 construct: made in house; host or cells: E. coli Rosetta 2 (DE3), co-expressed with BirA
T2 sequence (Q3TBT3 with tags, fused parts or gaps): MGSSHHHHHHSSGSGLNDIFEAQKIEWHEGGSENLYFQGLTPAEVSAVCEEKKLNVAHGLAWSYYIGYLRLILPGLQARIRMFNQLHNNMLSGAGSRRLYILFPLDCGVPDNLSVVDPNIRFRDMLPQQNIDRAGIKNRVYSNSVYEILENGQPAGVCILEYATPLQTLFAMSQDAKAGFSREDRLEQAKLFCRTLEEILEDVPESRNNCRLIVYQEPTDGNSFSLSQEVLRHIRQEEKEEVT
Procedure: as §1, §2, §3
Specifically, each test compound (final concentration 0.5 mM), SYPRO Orange (final concentration: 20×concentration), and the STING protein were mixed in a 384-well real-time PCR plate using a plate shaker. A real-time PCR system was used to increase the temperature from 25° C. to 95° C. at a rate of 0.03° C. per second, and the thermal denaturation temperature of the protein was measured using the fluorescence emitted by SYPRO Orange as an indicator. Tm (the midpoint of the unfolding transition) (° C.) was determined as the temperature at which the rate of increase in fluorescence intensity reached its maximum value. The shift of Tm by the test compound was calculated as ΔTm (° C.) by subtracting, from the Tm value of each compound, the Tm value of the well without the compound.

[3] = biological target: T3, human REF mutant (Hu-REF) STING C-terminal binding domain protein (Homo sapiens, UniProt Q86WV6); assay: Thermal shift assay with recombinant STING C-terminal binding domain protein (Hu-REF); settings: test compound 0.5 mM; Tm minus Tm of well without compound
T3 construct: made in house; host or cells: E. coli Rosetta 2 (DE3), co-expressed with BirA
T3 sequence (Q86WV6 with tags, fused parts or gaps, change not shown): as the sequence (Q86WV6 with tags, fused parts or gaps H232R) above, with R133H counted along it
Procedure: as §1, §2, §3, §4

[4] = biological target: T4, human AQ mutant (Hu-AQ) STING C-terminal binding domain protein (Homo sapiens, UniProt Q86WV6, G230A/H232R/R293Q); assay: Thermal shift assay with recombinant STING C-terminal binding domain protein (Hu-AQ); settings: test compound 0.5 mM; Tm minus Tm of well without compound
T4 construct: made in house; host or cells: E. coli Rosetta 2 (DE3), co-expressed with BirA
T4 sequence (Q86WV6 with tags, fused parts or gaps G230A/H232R/R293Q): as the sequence (Q86WV6 with tags, fused parts or gaps H232R) above, with G131A, R194Q counted along it
Procedure: as §1, §2, §3, §4

human FcγRI = biological target: T5, human FcγRI (Homo sapiens, UniProt P12314); assay: Human FcγRI binding activity by SPR (Biacore T200); settings: anti-EGFR antibodies as analyte, 0.3-4.7 μM; His-tagged FcγRI captured
T5 construct: purchased R&D systems
T5 sequence (P12314 16-374): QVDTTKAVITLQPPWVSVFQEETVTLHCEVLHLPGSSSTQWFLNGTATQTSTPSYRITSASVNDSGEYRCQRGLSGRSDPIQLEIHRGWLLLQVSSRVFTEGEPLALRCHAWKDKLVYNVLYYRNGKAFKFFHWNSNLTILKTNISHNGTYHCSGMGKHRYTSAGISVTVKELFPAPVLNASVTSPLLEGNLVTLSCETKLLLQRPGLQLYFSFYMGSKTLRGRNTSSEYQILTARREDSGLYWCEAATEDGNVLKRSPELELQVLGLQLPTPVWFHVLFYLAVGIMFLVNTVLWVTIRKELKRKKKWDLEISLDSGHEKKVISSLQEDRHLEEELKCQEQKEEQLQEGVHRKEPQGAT
Procedure: Anti-EGFR antibodies with various introduced effector-less mutations were evaluated for their binding activity against human FcγRI using Biacore T200 (Cytiva). […] The anti-EGFR antibody B used in the Test Example was obtained as HBS-EP+ solution by subjecting commercially available Vectibix Intravenous Infusion (Takeda Pharmaceuticals) (100 mg/5 mL) to buffer exchange using Amicon Ultra-15 Centrifugal Filter Unit (50K, produced by Merck). The binding activity was determined by allowing His-tagged human FcγRI to be captured as a ligand onto an anti-His antibody-immobilized sensor chip, then adding each anti-EGFR antibody as an analyte to the sensor chip, and measuring the interaction between the ligand and the analyte by Surface Plasmon Resonance (SPR). Anti-6× His tag antibody [AD1.1.10] (abcam) was immobilized onto Sensor Chip CM5 (Cytiva) according to the instructions of the kit. Recombinant Human Fc gamma RI/CD64 Protein (R&D systems) prepared at 10 μg/mL with HBS-EP+(GE Healthcare) was contacted with the sensor chip for 60 sec at 10 μL/min and thereby captured. Then, the anti-EGFR antibody prepared at each concentration with HBS-EP+ was added to the sensor chip for 120 sec at a flow rate of 30 μL/min.

human FcγRIIIa = biological target: T6, human FcγRIIIa (Homo sapiens, UniProt P08637); assay: Human FcγRIIIa binding activity by SPR; settings: anti-EGFR antibodies as analyte, 0.9-4.7 μM
T6 construct: purchased R&D systems
T6 sequence (P08637 17-254): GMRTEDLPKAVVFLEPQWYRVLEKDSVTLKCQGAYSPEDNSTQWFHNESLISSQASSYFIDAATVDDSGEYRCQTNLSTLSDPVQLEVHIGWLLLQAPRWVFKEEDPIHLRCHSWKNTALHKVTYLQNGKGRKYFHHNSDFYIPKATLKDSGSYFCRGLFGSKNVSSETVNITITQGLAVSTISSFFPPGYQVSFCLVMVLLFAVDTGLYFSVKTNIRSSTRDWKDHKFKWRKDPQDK
Procedure: (§5) The binding activity was determined by directly immobilizing human FcγR as a ligand onto a sensor chip, then adding each anti-EGFR antibody as an analyte to the sensor chip, and measuring the interaction between the ligand and the analyte by SPR. Recombinant Human Fc gammaRIIA/CD32a (R167) Protein (R&D systems) was immobilized as human FcγRIIa onto Sensor Chip CM5 according to the instructions of the kit. Then, the anti-EGFR antibody prepared at each concentration with HBS-EP+ was added to the sensor chip for 120 sec at a flow rate of 30 μL/min.
Recombinant Human Fc gamma RIIIA/CD16a protein (R&D systems) was used as human FcγRIIIa.

human FcγRIIIb = biological target: T7, human FcγRIIIb (Homo sapiens, UniProt O75015); assay: Human FcγRIIIb binding activity by SPR; settings: anti-EGFR antibodies as analyte, 0.9-4.7 μM
T7 construct: purchased R&D systems
T7 sequence (O75015 17-200): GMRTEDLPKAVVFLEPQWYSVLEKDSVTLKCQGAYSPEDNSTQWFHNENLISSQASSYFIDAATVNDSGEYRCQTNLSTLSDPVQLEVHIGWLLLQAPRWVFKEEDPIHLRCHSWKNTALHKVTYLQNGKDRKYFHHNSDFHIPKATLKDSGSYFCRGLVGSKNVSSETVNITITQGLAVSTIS
Procedure: as §5
Recombinant Human Fc gamma RIIIB/CD16b Protein (R&D systems) was used as human FcγRIIIb.

human FcγRIIb/c = biological target: T8, human FcγRIIb/c (Homo sapiens, UniProt P31994); assay: Human FcγRIIb/c binding activity by SPR; settings: anti-EGFR antibodies as analyte, 0.9-4.7 μM
T8 construct: purchased R&D systems
T8 sequence (P31994 43-310): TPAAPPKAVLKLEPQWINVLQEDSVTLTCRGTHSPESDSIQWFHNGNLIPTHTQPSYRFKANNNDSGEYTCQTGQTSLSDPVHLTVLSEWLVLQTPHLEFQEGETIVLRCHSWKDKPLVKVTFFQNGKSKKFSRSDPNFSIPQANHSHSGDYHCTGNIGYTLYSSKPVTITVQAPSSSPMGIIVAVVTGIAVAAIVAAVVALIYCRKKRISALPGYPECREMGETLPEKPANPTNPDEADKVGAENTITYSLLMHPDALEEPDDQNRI
Procedure: as §5
Recombinant Human Fc gamma RIIB/C (CD32b/c) Protein (R&D systems) was used as human FcγRIIb/c.

Compound	ΔTm (° C.) Hu-WT [1] [°C]	ΔTm (° C.) Ms-WT [2] [°C]	ΔTm (° C.) Hu-REF [3] [°C]	ΔTm (° C.) Hu-AQ [4] [°C]	further results
O=c1c2ncn([C@@H]3O[C@@H]4COP(=O)(S)O[C@H]5[C@@H](F)[C@H](n6cc7c8c(ncnc86)SCCC7)O[C@@H]5COP(=O)(S)O[C@@H]3[C@@H]4O)c2ncn1CCO (single isomer, unassigned) [Compound 48b]	14.0	15.8	7.3	17.8	
O=c1c2ncn([C@@H]3O[C@@H]4COP(=O)(S)O[C@H]5[C@@H](F)[C@H](n6cc7c8c(ncnc86)NCCC7)O[C@@H]5COP(=O)(S)O[C@@H]3[C@@H]4O)c2ncn1CCO (single isomer, unassigned) [Compound 34b]	12.0	16.7	6.5	14.0	
IgG2: IgG2-type anti-EGFR antibody, commercially available Vectibix Intravenous Infusion; heavy chain SEQ ID NO: 35					RU value indicating binding to human FcγRI (rank order) (human FcγRI): IgG1 WT>>LALA>>IgG2>LALA-DG; RU value indicating binding to human FcγRIIIa (rank order) (human FcγRIIIa): IgG1 WT>LALA>IgG2>LALA-DG; RU value indicating binding to human FcγRIIIb (rank order) (human FcγRIIIb): IgG1 WT>LALA≈IgG2≈LALA-DG; RU value indicating binding to human FcγRIIb/c (rank order) (human FcγRIIb/c): IgG1 WT>IgG2>LALA>LALA-DG
O=c1c2ncn([C@@H]3O[C@@H]4COP(=O)(S)O[C@H]5[C@@H](O)[C@H](n6cc7c8c(ncnc86)NCCC7)O[C@@H]5COP(=O)(S)O[C@@H]3[C@@H]4F)c2ncn1CCO (single isomer, unassigned) [Compound 39b]					ΔTm at 500 µM [1]: 8.9 °C; ΔTm at 500 µM [2]: 13.1 °C; ΔTm at 500 µM [3]: 3.7 °C; ΔTm at 500 µM [4]: 10.5 °C
O=c1c2ncn([C@@H]3O[C@@H]4COP(=O)(S)O[C@H]5[C@@H](F)[C@H](n6cc7c8c(ncnc86)NCCC7)O[C@@H]5COP(=O)(S)O[C@@H]3[C@@H]4F)c2ncn1CCO (single isomer, unassigned) [Compound 44b]	11.4	17.0	6.2	14.3	
O=c1c2ncn([C@@H]3O[C@@H]4COP(=O)(O)O[C@H]5[C@@H](F)[C@H](n6cc7c8c(ncnc86)NCCC7)O[C@@H]5COP(=O)(S)O[C@@H]3[C@@H]4O)c2ncn1CCO (single isomer, unassigned) [Compound 52b]	9.2	12.3	4.4	10.8	
O=c1c2ncn([C@@H]3O[C@@H]4COP(=O)(S)O[C@H]5[C@@H](O)[C@H](n6cc7c8c(ncnc86)NCCC7)O[C@@H]5COP(=O)(S)O[C@@H]3[C@@H]4O)c2ncn1CCO (single isomer, unassigned) [Compound 6b]	8.4	12.9	3.4	11.3	
